Measurements from patent publication US20240067693A1, “POLYPEPTIDES AND USES THEREOF” (MEDIMMUNE LIMITED, priority 2020, published 2024).
Numbered stars: 1 amine (or outer) side, 2 acyl side, 3 side chain; on linkers, the order of the positions; unused ones are H or OH. Bridge positions count the residues as written; N and C are the ends. Square brackets hold non-standard residues; d marks the D form. Side chains are listed from the residue outwards. Peptide text beside a SMILES is read from it. * marks the point of attachment. C20 diacid = O=C(O)CCCCCCCCCCCCCCCCCCC(=O)*; C18 diacid = O=C(O)CCCCCCCCCCCCCCCCC(=O)*; γGlu = O=C(O)[C@H](CCC(=O)[*:2])N[*:1]; αMeF = C[C@](N)(Cc1ccccc1)C(=O)O; AEEA = NCCOCCOCC(=O)O

Legend:
[1] = molecular target: T1, human calcitonin receptor (hCTR) (Homo sapiens, UniProt P30988); assay: cAMP production in 1321N1 cells with stable recombinant expression of human calcitonin receptor (hCTR); assay type: cell-based; details: cAMP, 1321N1 cells, assay buffer with 0.1% BSA; read-out: EC50 (pM) hCTR
T1 construct: expressed in transfected cells
T1 sequence (P30988 25-474): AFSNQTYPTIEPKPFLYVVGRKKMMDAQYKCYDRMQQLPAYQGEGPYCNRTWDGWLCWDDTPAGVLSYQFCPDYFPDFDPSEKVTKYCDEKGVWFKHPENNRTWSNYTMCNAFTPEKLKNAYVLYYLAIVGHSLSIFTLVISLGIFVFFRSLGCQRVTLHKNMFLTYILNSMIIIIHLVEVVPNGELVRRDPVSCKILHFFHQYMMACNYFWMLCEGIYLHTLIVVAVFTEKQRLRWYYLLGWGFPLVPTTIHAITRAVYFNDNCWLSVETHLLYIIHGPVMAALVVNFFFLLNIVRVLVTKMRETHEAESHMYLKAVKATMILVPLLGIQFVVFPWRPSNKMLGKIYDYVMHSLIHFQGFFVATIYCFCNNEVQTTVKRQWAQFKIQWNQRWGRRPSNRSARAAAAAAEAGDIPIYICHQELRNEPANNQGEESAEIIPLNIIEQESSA
Summary of the method: (§1)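 Thawed cells in HBSS/0.1% BSA/25 mM HEPES pH 7.4 with 0.5 mM IBMX were incubated with peptides 30 min at room temperature; cAMP read by HTRF. EC50 from 4-parameter fit of % activation relative to maximal amylin or calcitonin effect.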

[2] = Thioflavin T fibrillation assay; assay type: physicochemical; details: for Time taken to detect increase in fluorescence intensity: ThT fibrillation assay, peptide 1 mg/mL in 25 mM sodium acetate buffer pH 4.0, 6 days at 37 °C with shaking, >144 h = no increase; for fibril-forming tendency: ThT assay, 1 mg/mL, pH 4.0, 37 °C, compared to pramlintide
Summary of the method: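 Peptides at 1 mg/mL in 25 mM sodium acetate pH 4.0 with ThT (from 0.25 mM stock), incubated 6 days at 37 °C with intermittent orbital shaking at 500–750 rpm. Fluorescence (ex 444/em 480 nm) read every 30 min; value is average time to a rise in baseline-corrected signal.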

[3] = Pharmacokinetic determination via IV and SC administration in Sprague Dawley rats; details: male, rat, plasma, 20 nmol/kg
[4] = molecular target: T2, rat calcitonin receptor (rat CTR) (Rattus norvegicus, UniProt P32214); assay: cAMP production in HEK cells with stable recombinant expression of rat calcitonin receptor (rat CTR); assay type: cell-based; details: assay buffer with 0.1% BSA
T2 construct: expressed in transfected cells
T2 sequence (P32214 25-516): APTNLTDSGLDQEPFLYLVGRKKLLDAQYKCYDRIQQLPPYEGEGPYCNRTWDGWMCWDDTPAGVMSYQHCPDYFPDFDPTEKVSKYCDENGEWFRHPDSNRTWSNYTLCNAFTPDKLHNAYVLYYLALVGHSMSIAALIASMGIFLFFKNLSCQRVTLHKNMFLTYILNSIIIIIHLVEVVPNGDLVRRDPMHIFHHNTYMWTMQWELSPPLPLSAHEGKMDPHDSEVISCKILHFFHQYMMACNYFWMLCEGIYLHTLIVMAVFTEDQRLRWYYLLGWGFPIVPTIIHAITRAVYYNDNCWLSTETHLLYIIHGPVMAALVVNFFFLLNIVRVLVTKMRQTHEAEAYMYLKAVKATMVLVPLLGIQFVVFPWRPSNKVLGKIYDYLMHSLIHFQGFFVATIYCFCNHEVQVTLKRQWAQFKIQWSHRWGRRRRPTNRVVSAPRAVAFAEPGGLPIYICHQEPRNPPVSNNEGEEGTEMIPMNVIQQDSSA
Summary of the method: as §1

[5] = in vivo; details: male, Sprague-Dawley, rat, 20 nmol/kg

EC50 [1] | Time taken to detect increase in fluorescence intensity [2] | half-life ([3]; iv) | half-life ([3]; sc) | EC50 [4] | half-life ([5]; iv) | half-life ([5]; sc) | fibril-forming tendency [2] | SMILES
2730 pM | >144 h | 10.1 h | 8.8 h | 2780 pM |  |  |  | CC[C@H](C)[C@H](NC(=O)[C@@H]1CCCN1C(=O)CNC(=O)[C@](C)(Cc1ccccc1)NC(=O)[C@H](CC(N)=O)NC(=O)[C@H](CC(N)=O)NC(=O)[C@H](CO)NC(=O)[C@H](CO)NC(=O)[C@H](Cc1c[nH]cn1)NC(=O)[C@H](CCCNC(=N)N)NC(=O)[C@H](CC(C)C)NC(=O)[C@H](Cc1ccccc1)NC(=O)[C@H](CCC(=O)O)NC(=O)[C@H](C)NC(=O)[C@H](CC(C)C)NC(=O)[C@H](CCCNC(=N)N)NC(=O)[C@H](CCC(N)=O)NC(=O)[C@@H](NC(=O)[C@H](C)NC(=O)[C@@H]1CSSC[C@H](NC(=O)CC[C@H](NC(=O)CCCCCCCCCCCCCCCCC(=O)O)C(=O)O)C(=O)N[C@@H](CC(N)=O)C(=O)N[C@@H]([C@@H](C)O)C(=O)N[C@@H](C)C(=O)N[C@@H]([C@@H](C)O)C(=O)N1)[C@@H](C)O)C(=O)N[C@@H](CC(C)C)C(=O)N1CCC[C@H]1C(=O)N1CCC[C@H]1C(=O)N[C@H](C(=O)N[C@@H](CC(N)=O)C(=O)N[C@H](C(=O)NCC(=O)N[C@@H](CO)C(=O)N[C@@H](CC(N)=O)C(=O)N[C@H](C(=O)N[C@@H](Cc1ccc(O)cc1)C(N)=O)[C@@H](C)O)C(C)C)[C@@H](C)O [Peptide 10, C18diacid-γE-[CNTATC]ATQRLAEFLRHSSNN(αMePhe)GPILPPTNVGSNTY-amide] ({C18 diacid-γGlu}-CNTATCATQRLAEFLRHSSNN[αMeF]GPILPPTNVGSNTY-NH2; disulfide 1-6)
1220 pM | >144 h | 9.2 h | 9.7 h | 107 pM |  |  |  | CC[C@H](C)[C@H](NC(=O)[C@@H]1CCCN1C(=O)CNC(=O)[C@](C)(Cc1ccccc1)NC(=O)[C@H](CC(N)=O)NC(=O)[C@H](CC(N)=O)NC(=O)[C@H](CO)NC(=O)[C@H](CO)NC(=O)[C@H](Cc1c[nH]cn1)NC(=O)[C@H](CCCNC(=N)N)NC(=O)[C@H](CC(C)C)NC(=O)[C@H](Cc1ccccc1)NC(=O)[C@H](CCC(=O)O)NC(=O)[C@H](C)NC(=O)[C@H](CC(C)C)NC(=O)[C@H](CCCNC(=N)N)NC(=O)[C@H](CCC(N)=O)NC(=O)[C@@H](NC(=O)[C@H](C)NC(=O)[C@@H]1CSSC[C@H](NC(=O)[C@H](CCCCN)NC(=O)[C@@H](N)CCCCNC(=O)CC[C@H](NC(=O)CCCCCCCCCCCCCCCCC(=O)O)C(=O)O)C(=O)N[C@@H](CC(N)=O)C(=O)N[C@@H]([C@@H](C)O)C(=O)N[C@@H](C)C(=O)N[C@@H]([C@@H](C)O)C(=O)N1)[C@@H](C)O)C(=O)N[C@@H](CC(C)C)C(=O)N1CCC[C@H]1C(=O)N1CCC[C@H]1C(=O)N[C@H](C(=O)N[C@@H](CC(N)=O)C(=O)N[C@H](C(=O)NCC(=O)N[C@@H](CO)C(=O)N[C@@H](CC(N)=O)C(=O)N[C@H](C(=O)N[C@@H](Cc1ccc(O)cc1)C(N)=O)[C@@H](C)O)C(C)C)[C@@H](C)O [Peptide 12, K(γE-C18diacid)K[CNTATC]ATQRLAEFLRHSSNN(αMePhe)GPILPPTNVGSNTY-amide] (H-K([γGlu-C18 diacid])KCNTATCATQRLAEFLRHSSNN[αMeF]GPILPPTNVGSNTY-NH2; disulfide 3-8; N-terminus assumed)
1340 pM | <5 h |  |  | 258 pM | 11.8 h | 19 h | increases the fibril-forming tendency | CC[C@H](C)[C@H](NC(=O)[C@@H]1CCCN1C(=O)CNC(=O)[C@H](Cc1ccccc1)NC(=O)[C@H](CC(N)=O)NC(=O)[C@H](CC(N)=O)NC(=O)[C@H](CO)NC(=O)[C@H](CO)NC(=O)[C@H](Cc1c[nH]cn1)NC(=O)[C@@H](NC(=O)[C@H](CC(C)C)NC(=O)[C@H](Cc1ccccc1)NC(=O)[C@H](CC(N)=O)NC(=O)[C@H](C)NC(=O)[C@H](CC(C)C)NC(=O)[C@H](CCCNC(=N)N)NC(=O)[C@H](CCC(N)=O)NC(=O)[C@@H](NC(=O)[C@H](C)NC(=O)[C@@H]1CSSC[C@H](NC(=O)[C@H](CCCCN)NC(=O)CC[C@H](NC(=O)CCCCCCCCCCCCCCCCCCC(=O)O)C(=O)O)C(=O)N[C@@H](CC(N)=O)C(=O)N[C@@H]([C@@H](C)O)C(=O)N[C@@H](C)C(=O)N[C@@H]([C@@H](C)O)C(=O)N1)[C@@H](C)O)C(C)C)C(=O)N[C@@H](CC(C)C)C(=O)N1CCC[C@H]1C(=O)N1CCC[C@H]1C(=O)N[C@H](C(=O)N[C@@H](CC(N)=O)C(=O)N[C@H](C(=O)NCC(=O)N[C@@H](CO)C(=O)N[C@@H](CC(N)=O)C(=O)N[C@H](C(=O)N[C@@H](Cc1ccc(O)cc1)C(N)=O)[C@@H](C)O)C(C)C)[C@@H](C)O [Peptide 112] ({C20 diacid-γGlu}-KCNTATCATQRLANFLVHSSNNFGPILPPTNVGSNTY-NH2; disulfide 2-7)
18500 pM | <5 h |  |  | 10400 pM | 11.2 h | 18.2 h | increases the fibril-forming tendency | CC[C@H](C)[C@H](NC(=O)[C@@H]1CCCN1C(=O)CNC(=O)[C@H](Cc1ccccc1)NC(=O)[C@H](CC(N)=O)NC(=O)[C@H](CC(N)=O)NC(=O)[C@H](CO)NC(=O)[C@H](CO)NC(=O)[C@H](Cc1c[nH]cn1)NC(=O)[C@@H](NC(=O)[C@H](CC(C)C)NC(=O)[C@H](Cc1ccccc1)NC(=O)[C@H](CC(N)=O)NC(=O)[C@H](C)NC(=O)[C@H](CC(C)C)NC(=O)[C@H](CCCNC(=N)N)NC(=O)[C@H](CCC(N)=O)NC(=O)[C@@H](NC(=O)[C@H](C)NC(=O)[C@@H]1CSSC[C@H](NC(=O)[C@H](CCCCN)NC(=O)COCCOCCNC(=O)COCCOCCNC(=O)CC[C@H](NC(=O)CCCCCCCCCCCCCCCCCCC(=O)O)C(=O)O)C(=O)N[C@@H](CC(N)=O)C(=O)N[C@@H]([C@@H](C)O)C(=O)N[C@@H](C)C(=O)N[C@@H]([C@@H](C)O)C(=O)N1)[C@@H](C)O)C(C)C)C(=O)N[C@@H](CC(C)C)C(=O)N1CCC[C@H]1C(=O)N1CCC[C@H]1C(=O)N[C@H](C(=O)N[C@@H](CC(N)=O)C(=O)N[C@H](C(=O)NCC(=O)N[C@@H](CO)C(=O)N[C@@H](CC(N)=O)C(=O)N[C@H](C(=O)N[C@@H](Cc1ccc(O)cc1)C(N)=O)[C@@H](C)O)C(C)C)[C@@H](C)O [Peptide 113] ({C20 diacid-γGlu-AEEA-AEEA}-KCNTATCATQRLANFLVHSSNNFGPILPPTNVGSNTY-NH2; disulfide 2-7)
